Source: ChEMBL document CHEMBL1147974, “Metabolic activation of indole-containing prostaglandin D2 receptor 1 antagonists: impacts of glutathione trapping and glucuronide conjugation on covalent binding” (Bioorg Med Chem Lett, 2007)

Key:
Hepatocyte [1] = assay: Covalent binding in rat hepatocytes at 10 uM after 1 hr; type: ADME, cell-based
Liver microsomes [2] = assay: Covalent binding in rat liver microsomes after 60 mins assessed as GSH adduct formation; type: ADME, Microsome; conditions: 1 h
Liver microsomes [3] = assay: Covalent binding in human liver microsomes after 60 mins assessed as GSH adduct formation; type: ADME, Microsome; conditions: 1 h
Liver microsomes [4] = assay: Covalent binding in human liver microsomes at 10 uM after 1 hr; type: ADME, Microsome
Liver microsomes [5] = assay: Covalent binding in rat liver microsomes at 10 uM after 1 hr; type: ADME, Microsome
Hepatocyte [6] = assay: Covalent binding in human hepatocytes at 10 uM after 1 hr; type: ADME, cell-based

Activity (Hepatocyte [1]) [pmol/mg] | Activity (Liver microsomes [2]) [%] | Activity (Liver microsomes [3]) [%] | Activity (Liver microsomes [4]) [pmol/mg] | Activity (Liver microsomes [5]) [pmol/mg] | Activity (Hepatocyte [6]) [pmol/mg] | Structure (SMILES)
45 | 41 | 15 | 46 | 290 | 16 | CC(=O)c1cc(F)cc2c3c(n(Cc4ccc(Cl)cc4)c12)[C@@H](CC(=O)O)CC3
74 | 22 | 5 | 33 | 460 | 33 | O=C(O)C[C@H]1CCc2c1n(Cc1ccc(Cl)cc1)c1c(Br)cc(F)cc21
8 | < 0.5 | < 0.5 | 18 | 23 | 5 | CC(=O)c1cc(S(C)(=O)=O)cc2c3c(n(Cc4ccc(Cl)cc4)c12)[C@@H](CC(=O)O)CC3
